Measurements from US6905841B2, “Enzymatic substrates for detecting Pseudomonas aeruginas” (Biomerieux S.A., priority 1999, dated 2005).
Read-outs that look alike come from different tables or passages of the source.

Legend:
[1] = tested on: β-alanine aminopeptidase; assay: APIZYM-type test strips with β-alanyl-β-naphthylamide; assay type: cell-based; settings: Citrobacter freundii; five strains
[2] = tested on: β-alanine aminopeptidase; assay: as above; assay type: cell-based; settings: Pasteurella pneumotropica; 4 strains
[3] = tested on: β-alanine aminopeptidase; assay: as above; assay type: cell-based; settings: Burkholderia cepacia; five strains
[4] = tested on: β-alanine aminopeptidase; assay: as above; assay type: cell-based; settings: Myroïdes spp.; five strains
[5] = tested on: β-alanine aminopeptidase; assay: as above; assay type: cell-based; settings: Achromobacter xylosoxidans, spp. xylosoxidans; five strains
[6] = tested on: β-alanine aminopeptidase; assay: as above; assay type: cell-based; settings: Brevundimonas vesicularis; five strains
[7] = tested on: β-alanine aminopeptidase; settings: Pseudomonas fluorescens; 2 strains tested; read after 22 to 24 hours
[8] = tested on: β-alanine aminopeptidase; settings: Vibrio vulnificus; 1 strain tested; read after 22 to 24 hours
[9] = tested on: β-alanine aminopeptidase; settings: Citrobacter koseri; 1 strain tested; read after 22 to 24 hours
[10] = tested on: β-alanine aminopeptidase; settings: Burkholderia vesicularis; 1 strain tested; read after 22 to 24 hours

Molecule | β-alanine aminopeptidase activity, result [1] | β-alanine aminopeptidase activity, result [2] | β-alanine aminopeptidase activity, result [3] | β-alanine aminopeptidase activity, result [4] | β-alanine aminopeptidase activity, result [5] | β-alanine aminopeptidase activity, result [6] | Number of negative results [7] | Number positive results [7] | Number of negative results [8] | Number positive results [8] | Number of negative results [9] | Number positive results [9] | Number of negative results [10] | Number positive results [10]
β-alanyl-β-naphthylamide | negative | negative | positive | negative | negative | negative |  |  |  |  |  |  |  | 
NCCC(=O)c1c(N)cc(Cl)c(O)c1Cl |  |  |  |  |  |  | 1 | 1 | 1 | 0 | 1 | 0 | 1 | 0
